Values joined by “and” are separate entries in the source; they are usually repeats but may differ in a detail not shown here. Equal entries are not always repeated. “Also recorded” adds a separate entry of the source.
Assays:
[1] = system: shRNA PanK2 knockdown human neuroblastoma IMR32 cells; assay: Intracellular CoA levels in shRNA PanK2 knockdown human neuroblastoma cells; format: cell-based; conditions: for Area Ratio, biological replicates 1-3 / Area Ratio, Mean / CoASH Fold Increase, Mean: Figure 3 data; for Area Ratio, biological replicates 1-3: PANK2-/- cells; for CoASH Fold Increase, Mean: over vehicle (1.00); for CoASH Area ratio / Total CoA Area ratio: Figure 4 data, 1 µM fosmetpantotenate, each line a biological replicate (well), analyzed 3 times
Protocol: The in vitro model to evaluate the efficacy of fosmetpantotenate and analogs was developed using a human neuroblastoma IMR32 cell line (ATCC) with stable PanK2 knockdown through lentiviral-delivered shRNA [23]. […] Cells were cultured in minimal essential media (MEM; Invitrogen), supplemented with 10% fetal bovine serum, 2 mM glutamine, 1% penicillin-streptomycin, 1 mM sodium pyruvate, 1 mM non-essential amino acids, 1.5 g/L sodium bicarbonate, and 1 μg/mL puromycin. […] At the end of the time period, cells were harvested, counted, collected in a 15 mL falcon tube, and centrifuged at 200xg for 5 min at 4°C.
For all incubations, the supernatant was removed and the cell pellet was resuspended in 10 mL of ice-cold phosphate buffered saline. […] The supernatant (100 μL) was placed in a separate tube and dried under nitrogen at 20°C in the dark. Samples were reconstituted with ammonium acetate buffer (pH 5.1) containing dextrorphan (50 ng/mL) as the internal standard, stirred for 2 min, sonicated in an ultrasonic bath for 1 min, and stirred again for 1 min before liquid chromatography-tandem mass spectrometry (LC-MS/MS) analysis for determination of intracellular CoA levels. Intracellular CoA concentration was calculated considering an intracellular volume of 10^6 cells equal to 2 μL. The measurement of the intracellular volume of cultured cells was performed following the distribution of [^14C]urea and [^14C]mannitol with time.
Coenzyme A determinations: An Agilent 1100 high-performance liquid chromatography (HPLC) system with a CTC PAL autosampler was used. Samples were chromatographed on a Phenomenex Luna C18 column (50 x 2.0 mm; 5 μm), with a 0.2 mL/min flow rate and a […] injection volume in a 5 μL injection loop. The mobile phases were (A) 10 mM ammonium acetate in water and (B) acetonitrile:2-propanol (9:1; v:v). […] A Sciex API 4000 QTrap mass spectrometer, connected to the HPLC system in tandem, with an electrospray ionization source operating in the positive scanning mode, was used for multiple reaction monitoring (MRM). […] The statistical significance of the treatment was determined using a t-test.

[2] = Metabolic stability in mouse whole blood; format: in vitro ADME; conditions: for Percentage Remaining: mouse whole blood, replicates 1 and 2, listed as Fosmetpantotenate Total
Protocol: (§1) Metabolic stability in blood and liver microsomes: Fosmetpantotenate or its individual diastereomers (5 μM, n = 2, 37°C) were incubated in mouse, rat, cynomolgus monkey, and human whole blood. Samples (50 μL) were taken at 0, 5, 15, 30, and 60 min. Incubations of fosmetpantotenate or its individual diastereomers (1 μM, n = 2, 37°C) in pooled liver microsomes (0.25 mg protein/mL in 0.1 M phosphate buffer pH 7.4) were initiated with the addition of nicotinamide adenine dinucleotide phosphate (NADPH; 1 mM). Aliquots (100 μL) were obtained at 0, 5, 10, 20, and 40 min and added to 150 μL of 0.1% formic acid in acetonitrile-containing carbamazepine (0.5 μM) as an analytical internal standard, centrifuged, and the supernatants analyzed by LC-MS/MS.
(§2) Bioanalysis for determinations of analyte stability: Samples were analyzed using a benchtop tandem quadrupole detector (TQD) mass spectrometer (Waters Ltd, Centennial Park, Hertfordshire). […] Suitable retention and peak shape with separation of the 2 diastereomers were obtained. The chromatography column was a Phenomenex-Kinetex XB C18 (2.10 x 50 mm; 2.6 μm), with a 0.7 mL/min flow rate and a 2 μL injection volume. […] The gradient was initiated with 20% B and increased linearly, reaching 40% B at 0.6 min, followed by 50% B at 0.8 min and by 95% B at 0.9 min. Conditions were kept isocratic through 1.2 min, returned to starting conditions (20% B) at 1.25 min, and maintained at 20% B through 1.5 min before the next injection. Since fosmetpantotenate is a mixture of diastereomers which are resolved chromatographically, the fosmetpantotenate MRM area corresponds to the sum of the MRM areas of the individual diastereomers.
(§3) The percent of compound remaining was determined from the MRM area response in each sample relative to that in the T = 0 samples (normalized for internal standard). Natural log plots of the percent compound remaining over time were used to determine the t½ of compound disappearance using the relationship t½ = -0.693/λ, where λ is the slope of the natural logarithm of the percent compound remaining vs time curve.

[3] = Metabolic stability in monkey whole blood; format: in vitro ADME, cynomolgus monkey; conditions: for Percentage Remaining: monkey whole blood, replicates 1 and 2, listed as Fosmetpantotenate Total
Protocol: as §1, with “Samples (50 μL) were taken at 0, 5, 15, 30, and 60 min.” left out
as §2, §3

[4] = Metabolic stability in human whole blood; format: in vitro ADME; conditions: for Percentage Remaining: human whole blood, replicates 1 and 2, listed as Fosmetpantotenate Total
Protocol: as §1, §2, §3

[5] = Metabolic stability in mouse liver microsomes; format: in vitro ADME; conditions: pooled liver microsomes
Protocol: as §1
(§4) Bioanalysis for determinations of analyte stability: Samples were analyzed using a benchtop tandem quadrupole detector (TQD) mass spectrometer (Waters Ltd, Centennial Park, Hertfordshire). […] Suitable retention and peak shape with separation of the 2 diastereomers were obtained. The chromatography column was a Phenomenex-Kinetex XB C18 (2.10 x 50 mm; 2.6 μm), with a 0.7 mL/min flow rate and a 2 μL injection volume. […]
(§5) The percent of compound remaining was determined from the MRM area response in each sample relative to that in the T = 0 samples (normalized for internal standard). […]

[6] = Metabolic stability in rat liver microsomes; format: in vitro ADME; conditions: pooled liver microsomes
Protocol: as §1, §4, §5

[7] = Metabolic stability in monkey liver microsomes; format: in vitro ADME; conditions: pooled liver microsomes
Protocol: as §1, §4, §5

[8] = pH 7.4, read-out: intrinsic clearance

For `COC(=O)CCNC(=O)[C@H](O)C(C)(C)COP(=O)(N[C@@H](C)C(=O)OC)Oc1ccccc1` (mixture of isomers) [Fosmetpantotenate], the “change in the level of free CoA” value ([1]; 1 μM TID for 5 days) was “little change; also recorded: little effect”, the “Area Ratio, biological replicates 1-3” value ([1]; compound conc 12.5 µM) was 0.109 and 0.098 and 0.112 and the “Area Ratio, biological replicates 1-3” value ([1]; compound conc 25 µM) was 0.141 and 0.129 and 0.135. The “Area Ratio, biological replicates 1-3” value ([1]; compound conc 50 µM) was 0.159 and 0.189 and 0.167, the “Area Ratio, biological replicates 1-3” value ([1]; compound conc 100 µM) was 0.157 and 0.186 and 0.139 and the “Area Ratio, biological replicates 1-3” value ([1]; compound conc 200 µM) was 0.243 and 0.294 and 0.241. The “Area Ratio, Mean” value ([1]; concentration 12.5 µM) was 0.081, the “Area Ratio, Mean” value ([1]; concentration 25 µM) was 0.111 and the “Area Ratio, Mean” value ([1]; concentration 50 µM) was 0.141. For the same molecule, the “Area Ratio, Mean” value ([1]; concentration 100 µM) was 0.127, the “Area Ratio, Mean” value ([1]; concentration 200 µM) was 0.216 and the “CoASH Fold Increase, Mean” value ([1]; concentration 25 µM) was 1.25. For the same molecule, the “CoASH Fold Increase, Mean” value ([1]; concentration 50 µM) was 2.00, the “CoASH Fold Increase, Mean” value ([1]; concentration 100 µM) was 2.27 and the “CoASH Fold Increase, Mean” value ([1]; concentration 200 µM) was 2.41. The “CoASH Area ratio” value ([1]; Day 1) was 0.0013 (2×) and 0.0014 and 0.0011 and 0.0012 (2×) and 0.0018 and 0.0019 (2×), the “Total CoA Area ratio” value ([1]; Day 1) was 0.0238 and 0.0248 and 0.0256 and 0.0250 and 0.0258 and 0.0229 and 0.0233 and 0.0235 and the “CoASH Area ratio” value ([1]; Day 3) was 0.0035 and 0.0037 (2×) and 0.0024 and 0.0025 and 0.0026 and 0.0022 and 0.0023 (2×). The “Total CoA Area ratio” value ([1]; Day 3) was 0.0360 and 0.0361 and 0.0365 and 0.0359 and 0.0368 and 0.0185 and 0.0353 and 0.0367, the “CoASH Area ratio” value ([1]; Day 5) was 0.0029 and 0.0031 (2×) and 0.0024 (2×) and 0.0025 and 0.0019 and 0.0020 (2×) and the “Total CoA Area ratio” value ([1]; Day 5) was 0.0314 and 0.0330 (2×) and 0.0343 and 0.0336 and 0.0342. The half-life at 5 μM ([2]; mouse blood, 5 μM, 37°C, 60 min) was less than 5 min, the “Percentage Remaining” value ([2]; 5 min) was 1% and the “Percentage Remaining” value ([2]; 15 min) was 1%. For the same molecule, the half-life at 5 μM ([3]; monkey blood, 5 μM, 37°C, 60 min) was 41 min, the “Percentage Remaining” value ([3]; 5 min) was 79% and 108% and the “Percentage Remaining” value ([3]; 15 min) was 66% and 98%. The “Percentage Remaining” value ([3]; 30 min) was 45% and 79%, the “Percentage Remaining” value ([3]; 60 min) was 22% and 35% and the “Percentage Remaining” value ([3]; 90 min) was 15% and 35%. For the same molecule, the “Percentage Remaining” value ([3]; 120 min) was 10% and 17%, the half-life at 5 μM ([4]; human blood, 5 μM, 37°C, 60 min) was 67 min and the “Percentage Remaining” value ([4]; 5 min) was 103% and 90%. The “Percentage Remaining” value ([4]; 15 min) was 114% and 99%, the “Percentage Remaining” value ([4]; 30 min) was 77% and 71% and the “Percentage Remaining” value ([4]; 60 min) was 56% and 55%. For the same molecule, the half-life at 1 μM ([5]; pH 7.4, 1 μM, NADPH) was 11 min, the microsomal CLint at 1 μM [5, 8] was 247 µL/min/mg and the half-life at 1 μM ([6]; pH 7.4, 1 μM, NADPH) was 8 min. For the same molecule, the microsomal CLint at 1 μM [6, 8] was 335 µL/min/mg, the half-life at 1 μM ([7]; pH 7.4, 1 μM, NADPH) was 11 min and the microsomal CLint at 1 μM [7, 8] was 263 µL/min/mg.

From paper PMC5844530, “Fosmetpantotenate (RE-024), a phosphopantothenate replacement therapy for pantothenate kinase-associated neurodegeneration: Mechanism of action and efficacy in nonclinical models” (PLoS ONE, 2018)
